Source: publication PMC12673918, “Design, Synthesis, and Selective Antiproliferative Activity of Indolizine Derivatives as Microtubule Destabilizers” (Archiv Der Pharmazie, 2025)
Read-outs that look alike come from different tables or passages of the source.

Assays:
Format in all cases: cell-based
[1] = target: T1, human P2X7 receptor (Homo sapiens, UniProt Q99572); assay: YO‐PRO‐1 dye uptake assay for the P2X7 receptor; conditions: for inhibition at 10 µM: P2X7, read-out: % Inhibition of P2X7R at 10 µM compounds’ concentration
T1 construct: host or cells: HEK-293
T1 sequence (Q99572 1-595): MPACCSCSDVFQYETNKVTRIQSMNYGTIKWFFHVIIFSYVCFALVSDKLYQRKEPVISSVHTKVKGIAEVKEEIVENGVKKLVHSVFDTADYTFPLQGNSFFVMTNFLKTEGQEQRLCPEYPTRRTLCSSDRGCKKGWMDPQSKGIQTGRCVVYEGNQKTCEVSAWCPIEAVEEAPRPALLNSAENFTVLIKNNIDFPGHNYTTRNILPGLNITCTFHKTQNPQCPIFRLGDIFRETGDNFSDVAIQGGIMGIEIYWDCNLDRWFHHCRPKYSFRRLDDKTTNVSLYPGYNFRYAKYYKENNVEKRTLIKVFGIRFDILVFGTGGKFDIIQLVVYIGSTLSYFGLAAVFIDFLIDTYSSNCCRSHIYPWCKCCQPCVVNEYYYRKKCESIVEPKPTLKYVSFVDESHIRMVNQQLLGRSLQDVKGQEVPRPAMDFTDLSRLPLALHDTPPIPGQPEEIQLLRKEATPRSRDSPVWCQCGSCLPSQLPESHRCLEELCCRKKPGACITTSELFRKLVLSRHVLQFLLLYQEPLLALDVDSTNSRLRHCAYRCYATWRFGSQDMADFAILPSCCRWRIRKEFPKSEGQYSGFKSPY
Protocol: HEK‐293 cell lines stably expressing human P2X7 receptor (hP2X7R‐HEK‐293, B'SYS GmbH, Witterswil, Switzerland) were maintained in a 50/50 mix of Dulbecco's Modified Eagle Medium and F12 medium (DMEM/F12) supplemented with 9% (v/v) FCS, 1% (v/v) Penicillin/Streptomycin (10000 I.U./mL, 10 mg/mL in 0.9% NaCl) and G418 (100 µg/mL) at 37°C and 5% CO2. Cells were subcultured in cell culture 75 cm^2 flasks and split every 2‐4 days (1:3; 1:6; 1:10) once confluent.
HEK‐293 cell lines stably expressing human P2X7 receptor were seeded into black‐walled Nunc 96‐well optical bottom plates (Thermo Fisher Scientific) at 2.0–4.0 × 10^4 cells/well and incubated at 37°C for 24–48 h. After removing the culture medium, cells were washed with 100 µL wash buffer (280 mM Sucrose; 5.6 mM KCl; 0.5 mM CaCl2; 10 mM D‐Glucose; 10 mM HEPES; 5 mM N‐Methyl‐D‐glucamine (pH 7.4)). Then, 50 µL assay buffer (280 mM Sucrose; 6.4 mM KCl, 10 mM D‐Glucose; 10 mM HEPES; 5.0 mM N‐Methyl‐D‐glucamine (pH 7.4)) and 50 µL of antagonist dilutions (10^–5–10^–9 M) in assay buffer were added, and the cells were incubated at 37°C for 30 min. […] Finally, the uptake of YO‐PRO‐1 dye was recorded in a 9‐point‐well scan by following the fluorescence change using a FlexStation 3 Multi‐Mode Microplate Reader (Molecular Devices, San Jose, CA, USA, Software SoftMax7 Pro, endpoint protocol, well scan with reading pattern “fill scan”, λ ex = 485 nm, λ em = 535 nm). To determine the concentration‐dependent uptake inhibition by antagonists, the YO‐PRO‐1 uptake, expressed as RFU, was plotted against the concentrations of the compounds.

[2] = target: T2, human P2X4 receptor (Homo sapiens, UniProt Q99571); assay: Ca2+‐flux assay for the hP2X4 receptor; conditions: read-out: % Inhibition of P2X4R at 10 µM compounds’ concentration
T2 construct: expressed in transfected cells; host or cells: human 1321N1 astrocytoma cells
T2 sequence (Q99571 1-388): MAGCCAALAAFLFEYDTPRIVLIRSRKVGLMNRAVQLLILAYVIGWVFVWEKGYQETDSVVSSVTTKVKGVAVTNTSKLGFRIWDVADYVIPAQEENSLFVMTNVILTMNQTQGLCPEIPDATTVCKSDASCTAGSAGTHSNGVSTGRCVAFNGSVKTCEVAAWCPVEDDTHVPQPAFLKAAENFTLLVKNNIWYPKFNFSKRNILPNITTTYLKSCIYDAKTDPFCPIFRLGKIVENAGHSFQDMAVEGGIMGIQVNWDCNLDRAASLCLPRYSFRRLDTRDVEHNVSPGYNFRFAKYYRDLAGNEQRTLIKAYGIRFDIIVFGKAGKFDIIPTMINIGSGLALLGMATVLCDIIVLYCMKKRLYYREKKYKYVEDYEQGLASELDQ
Protocol: Human 1321N1 astrocytoma cells stably expressing the human P2X4 receptor (generated in‐house) were cultured in Dulbecco's Modified Eagle Medium supplemented with 9% (v/v) FCS, 1% (v/v) Penicillin/Streptomycin (10000 I.U./mL, 10 mg/mL in 0.9% NaCl) and puromycin (1 µg/mL) as a selection antibiotic at 37°C and 5% CO2. Cells were subcultured in cell culture 75 cm^2 flasks and split every 2–4 days (1:5; 1:6) once confluent.
1321N1 cells stably expressing human P2X4 receptor were seeded into black‐walled 96‐well plates (Thermo Fisher Scientific) at 2.5 × 10^4 cells/well and incubated at 37°C for 24–48 h. All test compounds were diluted in assay buffer solution (SBS: 135 mM NaCl; 5 mM KCl; 1 mM MgCl2.6 H2O; 1.8 mM CaCl2; 5.6 mM D‐Glucose; 10 mM HEPES, 0.1% (m/v) BSA, 0.05% (m/v) gelatine, 2.3 mM probenecid). The culture medium was removed, and 100 µL of 4 μM fluorescent Ca^2+ indicator Calbryte520AM in SBS was added and incubated at 37°C for 1 h. The dye solution was then removed, 100 µL of SBS solution and 50 µL of antagonist dilutions (10^–5–10^–9 M) in SBS were added, and the cells were incubated at room temperature for an extra 30 min. Finally, 50 µL of ATP (at a concentration of the previously determined EC50‐ value) was added by using FlexStation 3 Multi‐Mode Microplate Reader (Molecular Devices, San Jose, CA, USA, Software SoftMax7 Pro). The changes in intracellular Ca^2+ ion concentrations were monitored over 200 s (20 s baseline) by measuring the fluorescence signal at λ ex = 494 nm and λ em = 516 nm ([…] cut‐off). The concentration‐dependent decrease in Ca^2+‐flux, expressed as RFU, was plotted against the concentrations of the compounds.

[3] = test system: CAL‐27 (oral carcinoma); assay: Resazurin cell viability assay, CAL‐27; conditions: 50 µM; for inhibition at 50 µM: Homo sapiens, CAL-27
Protocol: (§1) The tongue squamous cell carcinoma cell line CAL‐27 (ATCC CRL‐2095), breast carcinoma BT‐20 (ATCC HTB‐19), gastric carcinoma HGC‐27 (BCRJ Code 0310), and normal oral fibroblast OHMF (culture of fibroblasts derived from human oral healthy mucosa, approved by the Research Ethics Committee of the University of São Paulo, Campus of Ribeirão Preto, Brazil (with protocol number 049) were cultured in DMEM medium (DMEM, Sigma‐Aldrich, St. Louis, MO, USA) supplemented with 10% fetal bovine serum and a solution of penicillin (100 U/mL) and streptomycin (100 μg/mL). The cultures were maintained in a humidified incubator with 5% CO₂ at 37°C.
(§2) Cell viability was analyzed using the resazurin assay. For this, cells were seeded in 96‐well plates (1 × 10^3 cells per well) and incubated at 37°C with 5% CO₂ overnight for cell adhesion. Subsequently, the cells were treated with different compounds (0–50 µM) for 72 h. After treatment, the medium was replaced with phenol‐free DMEM medium (Sigma‐Aldrich) containing resazurin at a concentration of 44 µM (Sigma‐Aldrich). After incubation for 4 h at 37°C, fluorescence detection was performed (excitation 530/25 nm, emission 590/35 nm) using a microplate fluorimeter (Synergy 2, Biotek). Initial cell growth inhibition assays were performed in triplicate or quadruplicate, while IC50 determinations were conducted in triplicate. Data were plotted, and IC₅₀ values were determined by nonlinear regression using GraphPad Prism software 9.0.
(§3) ^a Cell viability was assessed using the resazurin assay after 72 hours of compound treatment. Fluorescence was measured to estimate % of cellular growth inhibition at 50 µM values, based on triplicate experiments.
(§4) ^b IC50 values were determined using the same resazurin-based assay, with fluorescence measurements performed after 72 hours of treatment. These experiments were carried out in triplicate.

[4] = test system: BT‐20 (breast carcinoma); assay: Resazurin cell viability assay, BT‐20; conditions: 50 µM; for inhibition at 50 µM: Homo sapiens, BT-20
Protocol: as §1, §2, §3, §4

[5] = test system: HGC‐27 (gastric carcinoma); assay: Resazurin cell viability assay, HGC‐27; conditions: 50 µM; for inhibition at 50 µM: Homo sapiens, HGC-27
Protocol: as §1, §2, §3, §4

[6] = 72 h, mean ± SD, n = 3, read-out: % Cellular growth inhibition (at 50 µM) CAL‐27
[7] = 72 h, mean ± SD, n = 3, read-out: % Cellular growth inhibition (at 50 µM) BT‐20
[8] = 72 h, mean ± SD, n = 3, read-out: % Cellular growth inhibition (at 50 µM) HGC‐27
[9] = 72 hours, triplicate, read-out: % Cellular growth inhibition (at 50 µM) CAL-27 (supplement)
[10] = 72 hours, triplicate, read-out: % Cellular growth inhibition (at 50 µM) BT-20 (supplement)
[11] = 72 hours, triplicate, read-out: % Cellular growth inhibition (at 50 µM) HGC-27 (supplement)

Row | inhibition at 10 µM [1] | inhibition at 10 µM [2] | Compound | inhibition at 50 µM [3, 6] | inhibition at 50 µM [4, 7] | inhibition at 50 µM [5, 8] | further results
1 | 5% | 4% | COc1ccc(CC(=O)c2cc(OC)c(OC)c(OC)c2)nc1 [Compound 5f, 2‐(5‐methoxypyridin‐2‐yl)‐1‐(3,4,5‐trimethoxyphenyl)ethenone] | 67 ± 2.7% | 52 ± 4.2% | 48 ± 4.9% | –
2 | – | – | O=C(Cc1ccccn1)c1ccccc1 [Compound 4a, 1‐phenyl‐2‐(pyridin‐2‐yl)ethanone] | – | – | – | inhibition at 50 µM [3, 9]: 12.2 ± 2%; inhibition at 50 µM [4, 10]: 7.5 ± 0.5%; inhibition at 50 µM [5, 11]: 2.4 ± 0.9%
3 | -8% | 3% | Cc1ccc(C(=O)c2ccn3ccccc23)cc1 [Compound 6c, (Indolizin‐1‐yl)(p‐tolyl)methanone] | 22 ± 2.6% | 28 ± 1.3% | 20 ± 0.6% | –
4 | 2% | 8% | COc1ccc(C(=O)c2ccn3cc(OC)ccc23)cc1 [Compound 7d, (6‐methoxyindolizin‐1‐yl)(4‐methoxyphenyl)methanone] | 15 ± 1.1% | 7 ± 0.9% | 1 ± 1% | –
5 | -9% | -2% | COc1ccc2c(C(=O)c3ccc(C)cc3)ccn2c1 [Compound 7c, (6‐methoxyindolizin‐1‐yl)(p‐tolyl)methanone] | 20 ± 0.7% | 15 ± 0.5% | 13 ± 0.7% | –
6 | 7% | 9% | O=C(c1ccc(Cl)c(Cl)c1)c1ccn2ccccc12 [Compound 6e, (3,4‐dichlorophenyl)(indolizin‐1‐yl)methanone] | 42 ± 0.8% | 40 ± 0.4% | 41 ± 1% | –
7 | – | – | 2‐(pyridin‐2‐yl)‐1‐(p‐tolyl)ethanone [Compound 4d] | – | – | – | % Cellular growth inhibition (at 50 µM) CAL-27 (supplement) ([3]; 72 hours, triplicate): 12.6 ± 1.2%; % Cellular growth inhibition (at 50 µM) BT-20 (supplement) ([4]; 72 hours, triplicate): 17.4 ± 0.6%; % Cellular growth inhibition (at 50 µM) HGC-27 (supplement) ([5]; 72 hours, triplicate): 17.3 ± 1.2%
8 | – | – | O=C(Cc1ccccn1)c1ccc(Cl)cc1 [Compound 4b, 1‐(4‐chlorophenyl)‐2‐(pyridin‐2‐yl)ethanone] | – | – | – | inhibition at 50 µM [3, 9]: 11.4 ± 0.4%; inhibition at 50 µM [4, 10]: 17.3 ± 1.8%; inhibition at 50 µM [5, 11]: 16.1 ± 1.6%
9 | – | – | COc1cc(C(=O)c2ccn3ccccc23)cc(OC)c1OC [Compound 6f, (Indolizin‐1‐yl)(3,4,5‐Trimethoxyphenyl)Methanone] | 57 ± 0.9% | 43 ± 0.5% | 38 ± 1.6% | –
10 | – | – | O=C(NCC12CC3CC(CC(C3)C1)C2)c1cc(CCCNCCCO)ccc1Cl [AZD9056, reference compound] | – | – | – | IC50 ([1]; reference compound, same conditions, read-out: pIC50 at P2X7R (converted)): 10.5 nM
11 | – | – | O=C(c1ccccc1)c1ccn2ccccc12 [Compound 6a, (Indolizin‐1‐yl)(phenyl)methanone] | 15 ± 0.8% | 26 ± 1% | 20 ± 1.1% | –
12 | – | – | 1‐(4‐methoxyphenyl)‐2‐(pyridin‐2‐yl)ethanone [Compound 4c] | – | – | – | % Cellular growth inhibition (at 50 µM) CAL-27 (supplement) ([3]; 72 hours, triplicate): 9.0 ± 0.8%; % Cellular growth inhibition (at 50 µM) BT-20 (supplement) ([4]; 72 hours, triplicate): 13.7 ± 0.7%; % Cellular growth inhibition (at 50 µM) HGC-27 (supplement) ([5]; 72 hours, triplicate): 14.1 ± 1.8%
13 | – | – | O=C(Cc1ccccn1)c1ccc(Cl)c(Cl)c1 [Compound 4e, 1‐(3,4‐dichlorophenyl)‐2‐(pyridin‐2‐yl)ethanone] | – | – | – | inhibition at 50 µM [3, 9]: 22.3 ± 1.3%; inhibition at 50 µM [4, 10]: 43.3 ± 0.6%; inhibition at 50 µM [5, 11]: 36.9 ± 0.8%
14 | – | – | COc1cc(C(=O)Cc2ccccn2)cc(OC)c1OC [Compound 4f, 2‐(pyridin‐2‐yl)‐1‐(3,4,5‐trimethoxyphenyl)ethenone] | 20 ± 2.2% | 19 ± 1.2% | 10 ± 0.7% | –

Row | Compound | inhibition at 10 µM [1] | inhibition at 10 µM [2] | inhibition at 50 µM [3, 6] | inhibition at 50 µM [4, 7] | inhibition at 50 µM [5, 8] | further results
15 | CCCCCc1cn2cc(OC)ccc2c1C(=O)c1cc(OC)c(OC)c(OC)c1 [Compound 8i, (6‐methoxy‐2‐pentylindolizin‐1‐yl)(3,4,5‐trimethoxyphenyl)methanone] | 6% | -1% | 57 ± 2.5% | 38 ± 3.5% | 61 ± 1.5% | –
